Measurements: patent US20180214428A1, “3-(1H-INDOL-2-YL)-1H-PYRAZOLO[3,4-B]PYRIDINES AND THERAPEUTIC USES THEREOF” (Samumed, LLC, priority 2015, published 2018)

Key:
[1] = system: Wnt activity (Sp5-Luc reporter gene, SW480 colon carcinoma cells); assay: Screening assay for Wnt activity: Sp5-Luc reporter gene assay in SW480 cells; type: cell-based, human; conditions: for EC50: overnight incubation; for inhibition at 10 µM: given for EC50 of >10 μM, read-out: percent inhibition at 10 μM
Method in brief: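 SW480 cells stably transduced with a luciferase reporter driven by an Sp5 promoter of eight TCF/LEF sites were plated at 4,000 cells/well in 1% FBS medium. They were exposed overnight at 37° C to a 10-point 1:3 dilution series from 10 μM (0.1% DMSO). Luminescence was normalized to DMSO for four-parameter EC50, or percent inhibition at 10 μM.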

[2] = system: primary human fibroblasts derived from IPF patients (LL29 cells); assay: Inhibition of the fibrotic process: αSMA staining in TGF-β1 treated LL29 fibroblasts; type: cell-based; conditions: for EC50: TGF-β1 20 ng/mL, 4 days, % αSMA positive cells; for inhibition at 10 µM: read-out: percent inhibition at 10 μM
Method in brief: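 IPF patient-derived LL29 fibroblasts in 1% FBS medium got compound (11-point, 10 μM to 1.87 nM, 0.1% DMSO) plus TGF-β1 20 ng/mL, 4 days at 37° C. αSMA-positive live cells (SYTOX-excluded) were imaged, normalized to TGF-β1 controls and fitted for EC50; % inhibition at 10 μM given when EC50 >10 μM.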

[3] = system: SW480 colon cancer cells; assay: Cell viability assay (CellTiter-Blue) in SW480 colon cancer cells; type: cell-based, human; conditions: for EC50: four days, CellTiter-Blue; for inhibition at 10 µM: given for EC50 of >10 μM, read-out: percent inhibition at 10 μM
Method in brief: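 SW480 cells (~2×10^3 per well) were exposed to compound for four days at 37 °C/5% CO2, using 8-point 1:3 dilutions from 10 μM to 0.0045 μM in duplicate. Viability was read by resazurin reduction (CellTiter-Blue, ~3 h, Ex 560/Em 590 nm). EC50 came from non-linear regression; above 10 μM, percent inhibition at 10 μM is given.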

[4] = Homo sapiens, Fibroblast, at 10 μM, given for EC50 of >10 μM, TGF-β1, αSMA

SMILES | EC50 ([1]; Homo sapiens) | EC50 ([3]; Homo sapiens, 96 h) | EC50 [1] | EC50 [3] | EC50 ([2]; Homo sapiens, Fibroblast, 96 h) | inhibition at 10 µM ([1]; Homo sapiens) | inhibition at 10 µM [2, 4] | inhibition at 10 µM ([3]; Homo sapiens) | EC50 [2] | percent inhibition at 10 μM ([2]; at 10 μM, given for EC50 of >10 μM, TGF-β1, αSMA)
CN1CCN(c2cccc3[nH]c(-c4n[nH]c5ncc(-c6ccncc6)cc45)cc23)CC1 [Compound 218, 3-(4-(4-Methylpiperazin-1-yl)-1H-indol-2-yl)-5-(pyridin-4-yl)-1H-pyrazolo[3,4-b]pyridine] | > 10000 nM | 9070 nM | – | – | 3810 nM | 7.7% | – | – | – | –
CN1CCN(c2cccc3[nH]c(-c4n[nH]c5ncc(-c6cncnc6)cc45)cc23)CC1 [Compound 227, 3-(4-(4-Methylpiperazin-1-yl)-1H-indol-2-yl)-5-(pyrimidin-5-yl)-1H-pyrazolo[3,4-b]pyridine] | 4310 nM | 8760 nM | – | – | > 10000 nM | – | 47.8% | – | – | –
c1cncc(-c2cnc3[nH]nc(-c4cc5ccccc5[nH]4)c3c2)c1 [Compound 231, 3-(1H-Indol-2-yl)-5-(pyridin-3-yl)-1H-pyrazolo[3,4-b]pyridine] | 660 nM | > 10000 nM | – | – | 8690 nM | – | – | 9.1% | – | –
c1ccc2[nH]c(-c3n[nH]c4ncc(-c5cncc(CN6CCCC6)c5)cc34)cc2c1 [Compound 240, 3-(1H-Indol-2-yl)-5-(5-(pyrrolidin-1-ylmethyl)pyridin-3-yl)-1H-pyrazolo[3,4-b]pyridine] | 1410 nM | 9320 nM | – | – | 859 nM | – | – | – | – | –
CCCC(=O)Nc1cncc(-c2cnc3[nH]nc(-c4cc5ccccc5[nH]4)c3c2)c1 [Compound 243, N-(5-(3-(1H-Indol-2-yl)-1H-pyrazolo[3,4-b]pyridin-5-yl)pyridin-3-yl) butyramide] | 521 nM | 632 nM | – | – | 210 nM | – | – | – | – | –
O=C(Nc1cncc(-c2cnc3[nH]nc(-c4cc5ccccc5[nH]4)c3c2)c1)C1CCCCC1 [Compound 249, N-(5-(3-(1H-Indol-2-yl)-1H-pyrazolo[3,4-b]pyridin-5-yl)pyridin-3-yl) cyclohexanecarboxamide] | 2280 nM | > 10000 nM | – | – | > 10000 nM | – | 0% | 6.7% | – | –
CC(C)CC(=O)Nc1cncc(-c2cnc3[nH]nc(-c4cc5c(-c6cc(F)cc(NCCN(C)C)c6)cccc5[nH]4)c3c2)c1 [Compound 424, N-(5-(3-(4-(3-((2-(Dimethylamino)ethyl)amino)-5-fluorophenyl)-1H-indol-2-yl)-1H-pyrazolo[3,4-b]pyridin-5-yl)pyridin-3-yl)-3-methylbutanamide] | 304 nM | 376 nM | – | – | 350 nM | – | – | – | – | –
CC(C)Nc1cncc(-c2cnc3[nH]nc(-c4cc5c(-c6cc(F)cc(NCCN(C)C)c6)cccc5[nH]4)c3c2)c1 [Compound 434, N^1-(3-Fluoro-5-(2-(5-(5-(isopropylamino)pyridin-3-yl)-1H-pyrazolo[3,4-b]pyridin-3-yl)-1H-indol-4-yl)phenyl)-N^2,N^2-dimethylethane-1,2-diamine] | 312 nM | 394 nM | – | – | 1440 nM | – | – | – | – | –
CN(C)CCNc1cc(F)cc(-c2cccc3[nH]c(-c4n[nH]c5ncc(-c6cncc(NC(=O)C7CCC7)c6)cc45)cc23)c1 [Compound 443, N-(5-(3-(4-(3-((2-(Dimethylamino)ethyl)amino)-5-fluorophenyl)-1H-indol-2-yl)-1H-pyrazolo[3,4-b]pyridin-5-yl)pyridin-3-yl)cyclobutanecarboxamide] | 215 nM | 1220 nM | – | – | 990 nM | – | – | – | – | –
CS(=O)(=O)NCc1cc(F)cc(-c2cccc3[nH]c(-c4n[nH]c5ncc(-c6cncc(N)c6)cc45)cc23)c1 [Compound 453, N-(3-(2-(5-(5-Aminopyridin-3-yl)-1H-pyrazolo[3,4-b]pyridin-3-yl)-1H-indol-4-yl)-5-fluorobenzyl)methanesulfonamide] | 157 nM | 997 nM | – | – | 370 nM | – | – | – | – | –
Cc1ccncc1-c1cnc2[nH]nc(-c3cc4c(-c5cc(F)cc(CNS(C)(=O)=O)c5)cccc4[nH]3)c2c1 [Compound 455, N-(3-Fluoro-5-(2-(5-(4-methylpyridin-3-yl)-1H-pyrazolo[3,4-b]pyridin-3-yl)-1H-indol-4-yl)benzyl)methanesulfonamide] | 300 nM | > 10000 nM | – | – | > 10000 nM | – | 43.9% | 8.7% | – | –
CN(C)Cc1cncc(-c2cnc3[nH]nc(-c4cc5c(-c6cc(F)cc(CNS(C)(=O)=O)c6)cccc5[nH]4)c3c2)c1 [Compound 463, N-(3-(2-(5-(5-((Dimethylamino)methyl)pyridin-3-yl)-1H-pyrazolo[3,4-b]pyridin-3-yl)-1H-indol-4-yl)-5-fluorobenzyl)methane sulfonamide] | 489 nM | 1070 nM | – | – | 2030 nM | – | – | – | – | –

Continued, in another order:

EC50 ([1]; Homo sapiens) | EC50 ([3]; Homo sapiens, 96 h) | EC50 [1] | EC50 [3] | SMILES | EC50 ([2]; Homo sapiens, Fibroblast, 96 h) | inhibition at 10 µM ([1]; Homo sapiens) | inhibition at 10 µM [2, 4] | inhibition at 10 µM ([3]; Homo sapiens) | EC50 [2] | percent inhibition at 10 μM ([2]; at 10 μM, given for EC50 of >10 μM, TGF-β1, αSMA)
4750 nM | 3520 nM | – | – | CN1CCN(c2cccc3[nH]c(-c4n[nH]c5ncc(-c6cncc(CN7CCCCC7)c6)cc45)cc23)CC1 [Compound 215, 3-(4-(4-Methylpiperazin-1-yl)-1H-indol-2-yl)-5-(5-(piperidin-1-ylmethyl)pyridin-3-yl)-1H-pyrazolo[3,4-b]pyridine] | 1760 nM | – | – | – | – | –
1040 nM | 828 nM | – | – | CN1CCN(c2cccc3[nH]c(-c4n[nH]c5ncc(-c6cncc(NC(=O)C7CCCC7)c6)cc45)cc23)CC1 [Compound 222, N-(5-(3-(4-(4-Methylpiperazin-1-yl)-1H-indol-2-yl)-1H-pyrazolo[3,4-b]pyridin-5-yl)pyridin-3-yl)cyclopentanecarboxamide] | 790 nM | – | – | – | – | –
1640 nM | > 10000 nM | – | – | CC(C)(C)CC(=O)Nc1cncc(-c2cnc3[nH]nc(-c4cc5ccccc5[nH]4)c3c2)c1 [Compound 242, N-(5-(3-(1H-Indol-2-yl)-1H-pyrazolo[3,4-b]pyridin-5-yl)pyridin-3-yl)-3,3-dimethylbutanamide] | > 10000 nM | – | 0% | 14.3% | – | –
> 10000 nM | > 10000 nM | – | – | c1ccc(CNCc2cncc(-c3cnc4[nH]nc(-c5cc6ccccc6[nH]5)c4c3)c2)cc1 [Compound 250, 1-(5-(3-(1H-Indol-2-yl)-1H-pyrazolo[3,4-b]pyridin-5-yl)pyridin-3-yl)-N-benzylmethanamine] | 2950 nM | 50.9% | – | 12.2% | – | –
> 10000 nM | > 10000 nM | – | – | CC(C)(C)C(=O)Nc1cncc(-c2cnc3[nH]nc(-c4cc5c(-c6ccoc6)cccc5[nH]4)c3c2)c1 [Compound 290, N-(5-(3-(4-(Furan-3-yl)-1H-indol-2-yl)-1H-pyrazolo[3,4-b]pyridin-5-yl)pyridin-3-yl)pivalamide] | > 10000 nM | 53% | 43.3% | 35.1% | – | –
1000 nM | 2990 nM | – | – | FC1(F)CCN(Cc2cncc(-c3cnc4[nH]nc(-c5cc6c(-c7ccoc7)cccc6[nH]5)c4c3)c2)C1 [Compound 308, 5-(5-((3,3-Difluoropyrrolidin-1-yl)methyl)pyridin-3-yl)-3-(4-(furan-3-yl)-1H-indol-2-yl)-1H-pyrazolo[3,4-b]pyridine] | 3210 nM | – | – | – | – | –
293 nM | 527 nM | – | – | CN(C)CCNc1cc(F)cc(-c2cccc3[nH]c(-c4n[nH]c5ncc(-c6cncc(N)c6)cc45)cc23)c1 [Compound 425, N^1-(3-(2-(5-(5-Aminopyridin-3-yl)-1H-pyrazolo[3,4-b]pyridin-3-yl)-1H-indol-4-yl)-5-fluorophenyl)-N^2,N^2-dimethylethane-1,2-diamine] | 332 nM | – | – | – | – | –
947 nM | 757 nM | – | – | CCNCc1cncc(-c2cnc3[nH]nc(-c4cc5c(-c6cc(F)cc(NCCN(C)C)c6)cccc5[nH]4)c3c2)c1 [Compound 428, N^1-(3-(2-(5-(5-((Ethylamino)methyl)pyridin-3-yl)-1H-pyrazolo[3,4-b]pyridin-3-yl)-1H-indol-4-yl)-5-fluorophenyl)-N^2,N^2-dimethylethane-1,2-diamine] | 1250 nM | – | – | – | – | –
2780 nM | 3860 nM | – | – | CN(C)CCNc1cc(F)cc(-c2cccc3[nH]c(-c4n[nH]c5ncc(-c6cncc(CN7CCCCC7)c6)cc45)cc23)c1 [Compound 437, N^1-(3-Fluoro-5-(2-(5-(5-(piperidin-1-ylmethyl)pyridin-3-yl)-1H-pyrazolo[3,4-b]pyridin-3-yl)-1H-indol-4-yl)phenyl)-N^2,N^2-dimethylethane-1,2-diamine] | 5440 nM | – | – | – | – | –
– | – | 6070 nM | 4140 nM | CN(C)CCNc1cc(F)cc(-c2cccc3[nH]c(-c4n[nH]c5ncc(-c6ccncc6)cc45)cc23)c1 [Compound 440] | – | – | – | – | > 10000 nM | 0%
2600 nM | 1300 nM | – | – | CN(C)CCNc1cc(F)cc(-c2cccc3[nH]c(-c4n[nH]c5ncc(-c6cncnc6)cc45)cc23)c1 [Compound 449, N^1-(3-Fluoro-5-(2-(5-(pyrimidin-5-yl)-1H-pyrazolo[3,4-b]pyridin-3-yl)-1H-indol-4-yl)phenyl)-N^2,N^2-dimethylethane-1,2-diamine] | 1160 nM | – | – | – | – | –
